Measurements published in patent US8268795B2 (priority 2005, dated 2012).
Counter-ions that a name gives are not always drawn. Like-named read-outs stand apart in the source and are kept apart here.

What was measured:
Format in all cases: cell-based, rabbit
[1] = test system: VDCC currents in cerebral artery myocytes
[2] = molecular target: T1, VDCC currents in cerebral artery myocytes (Oryctolagus cuniculus, UniProt P15381)
T1 construct: Vascular smooth muscle cells were enzymatically isolated from cerebral arteries as previously described; endogenous in cells; host or cells: freshly isolated cerebral artery myocytes from control and SAH (5 days post-surgery) New Zealand white rabbits

[3] = molecular target: T2, VDCC currents in cerebral artery myocytes (Oryctolagus cuniculus, UniProt Q02343)
T2 construct: Vascular smooth muscle cells were enzymatically isolated from cerebral arteries as previously described; endogenous in cells; host or cells: freshly isolated cerebral artery myocytes from control and SAH (5 days post-surgery) New Zealand white rabbits

[4] = test system: small diameter cerebral arteries constricted by 60 mmol/L K+; test: tissue or blood
[5] = test system: small diameter cerebral arteries from control and SAH rabbits

T1 sequence (P15381 1-2166 isoform P15381-4): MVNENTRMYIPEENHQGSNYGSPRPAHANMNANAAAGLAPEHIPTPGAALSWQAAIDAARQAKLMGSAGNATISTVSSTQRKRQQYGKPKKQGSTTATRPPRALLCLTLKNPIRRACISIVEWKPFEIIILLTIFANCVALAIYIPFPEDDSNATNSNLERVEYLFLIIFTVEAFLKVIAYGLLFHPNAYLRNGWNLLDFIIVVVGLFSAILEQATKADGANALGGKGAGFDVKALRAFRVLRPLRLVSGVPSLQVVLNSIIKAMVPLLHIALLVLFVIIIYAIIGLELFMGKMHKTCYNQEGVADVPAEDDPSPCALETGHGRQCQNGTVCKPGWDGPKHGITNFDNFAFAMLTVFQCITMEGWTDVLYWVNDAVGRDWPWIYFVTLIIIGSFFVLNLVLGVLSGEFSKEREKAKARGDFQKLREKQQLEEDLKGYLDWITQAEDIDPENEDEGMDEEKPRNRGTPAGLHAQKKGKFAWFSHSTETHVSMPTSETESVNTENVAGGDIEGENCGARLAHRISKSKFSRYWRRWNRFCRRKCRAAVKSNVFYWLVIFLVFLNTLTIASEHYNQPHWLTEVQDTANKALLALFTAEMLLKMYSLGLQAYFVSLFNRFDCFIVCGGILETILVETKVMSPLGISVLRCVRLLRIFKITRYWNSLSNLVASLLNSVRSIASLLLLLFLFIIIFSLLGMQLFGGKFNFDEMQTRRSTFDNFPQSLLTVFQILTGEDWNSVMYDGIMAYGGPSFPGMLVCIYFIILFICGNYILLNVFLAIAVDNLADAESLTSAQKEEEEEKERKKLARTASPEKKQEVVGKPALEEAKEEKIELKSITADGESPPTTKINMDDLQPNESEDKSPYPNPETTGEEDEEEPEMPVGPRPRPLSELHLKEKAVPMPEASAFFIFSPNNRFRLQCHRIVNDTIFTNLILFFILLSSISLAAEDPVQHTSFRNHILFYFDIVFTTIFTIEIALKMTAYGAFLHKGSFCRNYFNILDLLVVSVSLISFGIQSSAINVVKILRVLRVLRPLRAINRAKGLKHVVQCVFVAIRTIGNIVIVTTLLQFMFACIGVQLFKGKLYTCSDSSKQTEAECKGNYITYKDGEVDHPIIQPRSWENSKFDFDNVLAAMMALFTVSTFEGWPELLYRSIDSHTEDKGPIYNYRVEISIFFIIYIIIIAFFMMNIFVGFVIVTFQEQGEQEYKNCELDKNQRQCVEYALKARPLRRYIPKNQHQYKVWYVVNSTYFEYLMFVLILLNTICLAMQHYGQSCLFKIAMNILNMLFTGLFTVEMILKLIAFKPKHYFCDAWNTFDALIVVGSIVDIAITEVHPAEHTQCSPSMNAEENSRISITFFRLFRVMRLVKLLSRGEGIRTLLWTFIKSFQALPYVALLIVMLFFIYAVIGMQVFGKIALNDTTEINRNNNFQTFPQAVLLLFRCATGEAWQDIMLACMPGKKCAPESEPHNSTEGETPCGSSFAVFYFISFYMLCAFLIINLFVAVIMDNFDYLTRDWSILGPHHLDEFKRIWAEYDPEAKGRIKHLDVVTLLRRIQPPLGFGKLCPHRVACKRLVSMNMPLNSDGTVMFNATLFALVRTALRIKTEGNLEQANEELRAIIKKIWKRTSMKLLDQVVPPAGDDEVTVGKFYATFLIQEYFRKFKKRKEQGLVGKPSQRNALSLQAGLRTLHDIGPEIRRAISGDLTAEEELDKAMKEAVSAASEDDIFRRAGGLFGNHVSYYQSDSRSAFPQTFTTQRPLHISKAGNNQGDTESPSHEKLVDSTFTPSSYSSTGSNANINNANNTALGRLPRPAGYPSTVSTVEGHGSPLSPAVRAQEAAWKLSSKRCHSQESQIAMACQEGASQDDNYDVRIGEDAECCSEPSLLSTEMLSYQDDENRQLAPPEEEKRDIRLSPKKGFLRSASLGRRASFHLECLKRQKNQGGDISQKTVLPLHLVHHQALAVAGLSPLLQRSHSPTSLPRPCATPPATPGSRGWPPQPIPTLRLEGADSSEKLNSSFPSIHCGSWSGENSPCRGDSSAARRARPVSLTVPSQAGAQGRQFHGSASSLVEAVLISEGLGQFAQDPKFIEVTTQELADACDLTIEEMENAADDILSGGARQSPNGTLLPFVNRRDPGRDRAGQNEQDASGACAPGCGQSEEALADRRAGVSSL
T2 sequence (Q02343 whole entry): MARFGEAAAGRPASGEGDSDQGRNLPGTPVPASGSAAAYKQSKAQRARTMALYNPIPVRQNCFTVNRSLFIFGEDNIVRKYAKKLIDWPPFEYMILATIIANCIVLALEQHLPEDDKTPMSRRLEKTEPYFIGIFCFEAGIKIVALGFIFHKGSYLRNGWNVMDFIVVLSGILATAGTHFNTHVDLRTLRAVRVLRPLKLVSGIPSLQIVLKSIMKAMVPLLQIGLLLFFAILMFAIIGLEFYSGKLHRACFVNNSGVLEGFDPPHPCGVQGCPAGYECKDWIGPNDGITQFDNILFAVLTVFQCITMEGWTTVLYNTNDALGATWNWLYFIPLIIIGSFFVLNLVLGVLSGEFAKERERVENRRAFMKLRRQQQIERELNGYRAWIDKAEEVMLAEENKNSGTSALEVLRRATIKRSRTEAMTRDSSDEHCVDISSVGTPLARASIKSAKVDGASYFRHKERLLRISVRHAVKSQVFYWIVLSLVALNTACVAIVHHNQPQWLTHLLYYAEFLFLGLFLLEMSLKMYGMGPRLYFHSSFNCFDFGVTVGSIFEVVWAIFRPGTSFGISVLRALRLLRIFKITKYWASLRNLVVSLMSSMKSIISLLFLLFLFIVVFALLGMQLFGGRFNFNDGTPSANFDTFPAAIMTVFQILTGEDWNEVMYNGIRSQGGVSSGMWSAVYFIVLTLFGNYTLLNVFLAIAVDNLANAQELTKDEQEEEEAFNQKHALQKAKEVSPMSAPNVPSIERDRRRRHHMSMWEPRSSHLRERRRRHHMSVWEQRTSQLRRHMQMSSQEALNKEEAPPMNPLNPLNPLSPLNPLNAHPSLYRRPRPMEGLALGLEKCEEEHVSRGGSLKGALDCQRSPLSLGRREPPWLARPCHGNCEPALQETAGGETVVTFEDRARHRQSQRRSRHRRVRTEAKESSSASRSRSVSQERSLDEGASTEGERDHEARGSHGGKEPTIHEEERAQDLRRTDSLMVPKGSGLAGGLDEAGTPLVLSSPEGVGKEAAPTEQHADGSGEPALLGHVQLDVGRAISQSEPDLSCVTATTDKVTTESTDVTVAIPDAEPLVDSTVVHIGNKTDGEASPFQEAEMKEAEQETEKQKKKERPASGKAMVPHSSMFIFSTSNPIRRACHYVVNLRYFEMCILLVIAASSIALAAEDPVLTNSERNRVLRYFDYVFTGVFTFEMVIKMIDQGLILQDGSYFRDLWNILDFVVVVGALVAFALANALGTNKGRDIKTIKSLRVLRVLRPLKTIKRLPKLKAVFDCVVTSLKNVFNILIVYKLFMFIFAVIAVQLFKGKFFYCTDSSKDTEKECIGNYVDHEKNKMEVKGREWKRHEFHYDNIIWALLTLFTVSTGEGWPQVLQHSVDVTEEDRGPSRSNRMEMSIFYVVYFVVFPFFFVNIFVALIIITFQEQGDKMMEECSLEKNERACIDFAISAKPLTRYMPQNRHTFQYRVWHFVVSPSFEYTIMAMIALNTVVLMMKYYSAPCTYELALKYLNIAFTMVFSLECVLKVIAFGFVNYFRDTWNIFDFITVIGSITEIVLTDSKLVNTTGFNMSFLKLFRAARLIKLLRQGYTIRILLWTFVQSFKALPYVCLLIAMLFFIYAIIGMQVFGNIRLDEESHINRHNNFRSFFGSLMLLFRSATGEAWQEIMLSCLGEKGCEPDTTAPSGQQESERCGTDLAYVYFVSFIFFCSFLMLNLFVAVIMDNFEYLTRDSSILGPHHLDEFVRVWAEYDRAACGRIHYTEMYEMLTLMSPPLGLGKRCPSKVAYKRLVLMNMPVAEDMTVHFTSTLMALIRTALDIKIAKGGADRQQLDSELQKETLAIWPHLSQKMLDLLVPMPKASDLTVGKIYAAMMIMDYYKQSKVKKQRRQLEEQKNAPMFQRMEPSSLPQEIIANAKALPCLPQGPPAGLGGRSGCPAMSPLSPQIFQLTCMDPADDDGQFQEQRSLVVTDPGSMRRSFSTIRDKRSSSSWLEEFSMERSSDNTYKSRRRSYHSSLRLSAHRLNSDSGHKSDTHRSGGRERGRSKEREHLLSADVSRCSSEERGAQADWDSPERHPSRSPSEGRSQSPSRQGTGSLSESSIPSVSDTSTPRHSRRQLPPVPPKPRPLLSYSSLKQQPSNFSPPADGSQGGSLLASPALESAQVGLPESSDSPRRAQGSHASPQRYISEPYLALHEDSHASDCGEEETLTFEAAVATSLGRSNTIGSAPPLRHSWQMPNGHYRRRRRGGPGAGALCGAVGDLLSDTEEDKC

## ω-Conotoxin GVIA
[1]
  peak inward currents at +20 mV: did not alter

## ω-Agatoxin IVA
[1]; SAH myocytes, 100 nmol/L
  peak inward currents at +20 mV: did not alter

## H-Gly-Val-Asp-Lys-Ala-Gly-Cys-Arg-Tyr-Met-Phe-Gly-Gly-Cys-Ser-Val-Asn-Asp-Asp-Cys-Cys-Pro-Arg-Leu-Gly-Cys-His-Ser-Leu-Phe-Ser-Tyr-Cys-Ala-Trp-Asp-Leu-Thr-Phe-Ser-Asp-OH (H-GVDKAGCRYMFGGCSVNDDCCPRLGCHSLFSYCAWDLTFSD-OH; cysteine pairing not given here) [SNX-482]
[2]; myocytes from control animals, SNX-482 200 nmol/L
  effect on VDCC currents: no effect
[3]; myocytes from SAH animals, SNX-482 200 nmol/L
  reduction of VDCC currents: approximately 30%
[4]; arteries constricted with 60 mmol/L K+, SNX-482 220 nmol/L alone
  dilation of cerebral arteries in the absence of diltiazem: can dilate
[4]; arteries cultured with oxyhemoglobin for 5 days, 60 mM K+, 1 mmol/L diltiazem, then SNX-482 220 nmol/L
  residual constriction observed in the presence of diltiazem: effectively reversed
[5]; arteries from SAH animals, pressurized to 100 mmHg
  dilation of pressurized cerebral arteries: approximately 30%
[5]; arteries from control animals, pressurized to 100 mmHg
  effect on pressurized arteries: no significant effect

## [Cd] [cadmium]
[3]; SAH myocytes, cadmium 200 μmol/L, n=4, data not shown
  VDCC currents resistant to nifedipine (10 μmol/L): abolished

## COc1ccc([C@@H]2Sc3ccccc3N(CCN(C)C)C(=O)[C@@H]2OC(C)=O)cc1 (relative stereo) [diltiazem, benzothiazepin-4(5H)-one, 3-(acetyloxy)-5-[2-(dimethylamino)ethyl]-2,3-dihydro-2-(4-methoxyphenyl)-,(+)-cis-,monohydrochloride]
[2]
  block of membrane currents: completely blocked
[1]
  current resistant to the L-type VDCC antagonist: approximately 20%
[4]; Oryctolagus cuniculus, 120 h
  IC50: 16.9 ± 6.9 µM
[4]; Oryctolagus cuniculus, B164, 0 h, read-out: EC50 of diltiazem treatment of K+ induced constricted arteries, Day 0, −Oxy Hb
  EC50: 1020 ± 70 nM
[4]; Oryctolagus cuniculus, B164, 24 h, read-out: EC50 of diltiazem treatment of K+ induced constricted arteries, Day 1, +Oxy Hb
  EC50: 950 ± 140 nM
[4]; Oryctolagus cuniculus, B164, 24 h, read-out: EC50 of diltiazem treatment of K+ induced constricted arteries, Day 1, −Oxy Hb
  EC50: 760 ± 70 nM
[4]; Oryctolagus cuniculus, B164, 72 h, read-out: EC50 of diltiazem treatment of K+ induced constricted arteries, Day 3, +Oxy Hb
  EC50: 1070 ± 60 nM
[4]; Oryctolagus cuniculus, B164, 72 h, read-out: EC50 of diltiazem treatment of K+ induced constricted arteries, Day 3, −Oxy Hb
  EC50: 780 ± 120 nM
[4]; Oryctolagus cuniculus, B164, 120 h, read-out: EC50 of diltiazem treatment of K+ induced constricted arteries, Day 5, +Oxy Hb
  EC50: 16900 ± 6900 nM
[4]; Oryctolagus cuniculus, B164, 120 h, read-out: EC50 of diltiazem treatment of K+ induced constricted arteries, Day 5, −Oxy Hb
  EC50: 1100 ± 100 nM
[4]; […], diltiazem 1 mmol/L, 60 mmol/L K+
  reduction of K+-induced constriction: 99.7±0.4%
[5]; arteries from control animals, diltiazem 50 μmol/L
  pressure-induced constriction at 100 mmHg: abolished
